Results as given in patent US20260241013A1, “TARGETED PROTEIN DEGRADATION USING PRODRUGS OF BIFUNCTIONAL COMPOUNDS THAT BIND UBIQUITIN LIGASE AND A TARGET MCL-1 PROTEIN” (Captor Therapeutics S.A., priority 2022, published 2026).
Read-outs that look alike come from different tables or passages of the source.

Columns and labels:
Type in all cases: cell-based
[1] = system: MV4-11 cells; assay: Cell viability assay (CellTiter-Glo, CTG protocol), MV4-11; details: Homo sapiens, MV4-11 (MCL-1 dependent AML line), 24 hours incubation, 1% FBS, read-out: Average pCC50 by molecule MV4-11 (converted)
Description: (§1) The effect of various compounds of the invention on the viability of MV4-11 and ARH-77 cell lines was investigated, using the CTG protocol described below.
(§2) MV4-11 cell lines are derived from acute myeloid leukaemia and it is described in the literature as a MCL-1 dependent cell line, as opposed to lymphoblast-like ARH-77 cell line, which is described as independent of MCL-1 (Tron A E et al. Nat Commun. 2018; 9: 5341; Caenepeel S et al. Cancer Discov. 2018 December; 8(12): 1582-1597).
(§3) Cells (MV4-11 or ARH-77) were seeded on […] in a growth medium with 1% FBS. Next, compound stocks were pre-diluted in DMSO and added directly to the cell culture media (final DMSO concentration: 0.5%). Compound concentrations used in this assay: 1/3 dilutions starting at 30 μM (9 to 12 points). After 24 hours of incubation, cell viability was evaluated using CellTiter-Gob® Luminescent Cell Viability Assay (Promega, cat #G7572). The luminescence signal was measured using a CLARIOstar Plus Multi-Mode Microplate Reader (574-590 nm).
(§4) Results were normalized to DMSO control. Collected data were analyzed using GraphPad Prism to calculate pCC50 values (i.e. the negative log of the CC50 value). CC50 (50% cytotoxic concentration) is the effective concentration of a cytotoxic compound, which produces 50% of the maximum possible cell death (i.e. the concentration of the compound which is required in order to reduce cell viability by 50%). CC50 is often used rather than IC50 in cell toxicity assays.

[2] = Cell viability assay (CellTiter-Glo, CTG protocol), ARH-77; details: human, ARH-77 cells (lymphoblast-like), ARH-77 (MCL-1 independent line), 24 hours incubation, 1% FBS, read-out: Average pCC50 by molecule ARH-77 (converted)
Description: as §1, §2, §3, §4

[3] = target: T1, CRBN (Homo sapiens, UniProt Q96SW2); assay: NanoBRET In-cell CRBN Target Engagement Assay (live and lytic mode), NanoLuc CRBN HEK293 cells
T1 construct: host or cells: HEK293 (NanoLuc CRBN HEK293 cells)
T1 sequence (Q96SW2 whole entry): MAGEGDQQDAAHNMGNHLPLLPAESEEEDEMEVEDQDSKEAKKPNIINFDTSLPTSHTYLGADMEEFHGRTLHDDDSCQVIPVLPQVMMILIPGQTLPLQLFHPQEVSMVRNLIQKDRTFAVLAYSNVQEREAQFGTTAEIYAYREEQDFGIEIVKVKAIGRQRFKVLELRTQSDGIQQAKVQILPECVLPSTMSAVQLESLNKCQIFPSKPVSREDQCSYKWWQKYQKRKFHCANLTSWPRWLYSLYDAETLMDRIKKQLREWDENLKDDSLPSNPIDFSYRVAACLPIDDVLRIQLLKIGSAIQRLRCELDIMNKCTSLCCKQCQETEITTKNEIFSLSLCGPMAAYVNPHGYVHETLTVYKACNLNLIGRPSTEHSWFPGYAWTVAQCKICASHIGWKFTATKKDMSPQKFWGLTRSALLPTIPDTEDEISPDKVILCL
Description: Commercially available, NanoBRET In-cell CRBN Target Engagement Assay (NanoBRET CRBN TE Assay), which uses NanoLuc CRBN HEK293 cells and NanoBRET In-cell CRBN Tracer was used (N2910, N2912, PROMEGA) to determine the cell membrane permeability of prodrugs of MCL-1 degraders.
The assay was run in 96-well plate format (cat. 3600, Corning). NanoLuc CRBN HEK293 cells were treated with CRBN Tracer and compounds. Briefly, prepared was cell suspension (0.17×10^6cells/ml) in Opti-MEM without phenol red (Life Technologies). The cells were treated with CRBN Tracer (20× concentrated, 5 μl/well. For the live mode: 0.8 μM and for the lytic: 0.17 μM final concentration) or DMSO vehicle control (20× concentrated, 5 μl/well). Such prepared cells were seeded into the wells of 96-well plate on top of compounds (100× concentrated, 1 μl/well; 11-point 2-fold dilution) pre-plated on them with the help of Echo 555 acoustic dispenser (Labcyte). For the lytic mode assay, Digitonin (0.05 mg/ml, 10× concentrated, 10 μl/well) was added additionally. In the live mode assay, the plate was incubated at 37° C., 5% CO2 for 2 hours, and then at room temperature for 15 minutes to cool down. In the lytic mode assay, there was no incubation. The 3×Complete NanoBRET reagent (50 μl/well) was prepared according to the manufacturer's recommendations, appropriately for live and lytic mode. The plate was incubated for 2 minutes at room temperature and the luminescence and fluorescence readings followed using CLARIOstar Multimode Plate Reader (donor emission RLU—450 nm; acceptor emission RFU—610 nm). RBA value is an indicator of cell membrane permeability (the lower, the better) is calculated from absolute pIC50 (the negative log of the absolute IC50 value when converted to molar) of the live mode assay (pIC50 Live) and the lytic mode assay (pIC50 Lytic).

[4] = live mode, intact cells, 2 hours at 37° C., read-out: pIC50 (live) (converted)
[5] = lytic mode, digitonin-lysed cells, no incubation, read-out: pIC50 (lytic) (converted)

| Compound | CC50 [1] [nM] | CC50 at 24 h [2] [nM] | IC50 [3, 4] [nM] | IC50 [3, 5] [nM] |
| --- | --- | --- | --- | --- |
| Cc1nn(C)c(C)c1-c1c(Cl)ccc2c(CCCOc3cccc4cc(F)ccc34)c(C(=O)OCOC(=O)CCO)n(CCN3CCN(C(=O)COc4cccc5c4CN(C4CCC(=O)NC4=O)C5=O)CC3)c12 (stereo not drawn) [Compound 43] | < 3.16 | > 3160 | 39.8 | 79.4 |
| Cc1nn(C)c(C)c1-c1c(Cl)ccc2c(CCCOc3cccc4cc(F)ccc34)c(C(=O)OCOC(=O)C3CCNCC3)n(CCN3CCN(C(=O)COc4cccc5c4CN(C4CCC(=O)NC4=O)C5=O)CC3)c12 (stereo not drawn) [Compound 55, ((Piperidine-4-carbonyl)oxy)methyl 6-chloro-1-(2-(4-(2-((2-(2,6-dioxopiperidin-3-yl)-1-oxoisoindolin-4-yl)oxy)acetyl)piperazin-1-yl)ethyl)-3-(3-((6-fluoronaphthalen-1-yl)oxy)propyl)-7-(1,3,5-trimethyl-1H-pyrazol-4-yl)-1H-indole-2-carboxylate] | < 100 | > 10000 |  |  |
| COCCOCC(=O)OCOC(=O)c1c(CCCOc2cccc3cc(F)ccc23)c2ccc(Cl)c(-c3c(C)nn(C)c3C)c2n1CCN1CCN(C(=O)COc2cccc3c2CN(C2CCC(=O)NC2=O)C3=O)CC1 (stereo not drawn) [Compound 57, (2-(2-Methoxyethoxy)acetoxy)methyl 6-chloro-1-(2-(4-(2-((2-(2,6-dioxopiperidin-3-yl)-1-oxoisoindolin-4-yl)oxy)acetyl)piperazin-1-yl)ethyl)-3-(3-((6-fluoronaphthalen-1-yl)oxy)propyl)-7-(1,3,5-trimethyl-1H-pyrazol-4-yl)-1H-indole-2-carboxylate] | < 10 | > 10000 |  |  |
| Cc1nn(C)c(C)c1-c1c(Cl)ccc2c(CCCOc3cccc4cc(F)ccc34)c(C(=O)OCOC(=O)C(C)(C)C)n(CCN3CCN(C(=O)Cn4c(C)nc5c(C(=O)NC6CCC(=O)NC6=O)cccc54)CC3)c12 (stereo not drawn) [Compound 70, (6-Chloro-1-{2-[4-(2-{4-[(2,6-dioxopiperidin-3-yl)carbamoyl]-2-methyl-1H-1,3-benzodiazol-1-yl}acetyl)piperazin-1-yl]ethyl}-3-{3-[(6-fluoronaphthalen-1-yl)oxy]propyl}-7-(1,3,5-trimethyl-1H-pyrazol-4-yl)-1H-indole-2-carbonyloxy)methyl 2,2-dimethylpropanoate] | < 10 | > 31600 | 25.1 | 7940 |
| Cc1nn(C)c(C)c1-c1c(Cl)ccc2c(CCCOc3cccc4cc(F)ccc34)c(C(=O)OCOC(=O)C(C)(C)C)n(CCN3CCC(CN4CCN(c5ccc6c(c5)CN([C@H]5CCC(=O)NC5=O)C6=O)CC4)CC3)c12 [Compound 71, (Pivaloyloxy)methyl (S)-6-chloro-1-(2-(4-((4-(2-(2,6-dioxopiperidin-3-yl)-1-oxoisoindolin-5-yl)piperazin-1-yl)methyl)piperidin-1-yl)ethyl)-3-(3-((6-fluoronaphthalen-1-yl)oxy)propyl)-7-(1,3,5-trimethyl-1H-pyrazol-4-yl)-1H-indole-2-carboxylate] | < 100 | > 10000 |  |  |
| Cc1nn(C)c(C)c1-c1c(Cl)ccc2c(CCCOc3cccc4cc(F)ccc34)c(C(=O)OCOC(=O)C(C)(C)C)n(CCN3CCN(C(=O)COc4cccc5c4n(C)c(=O)n5C4CCC(=O)NC4=O)CC3)c12 (stereo not drawn) [Compound 73, (Pivaloyloxy)methyl 6-chloro-1-(2-(4-(2-((1-(2,6-dioxopiperidin-3-yl)-3-methyl-2-oxo-2,3-dihydro-1H-benzo[d]imidazol-4-yl)oxy)acetyl)piperazin-1-yl)ethyl)-3-(3-((6-fluoronaphthalen-1-yl)oxy)propyl)-7-(1,3,5-trimethyl-1H-pyrazol-4-yl)-1H-indole-2-carboxylate] | < 3.16 | > 1000 | 6.31 | 398 |
| CC(=O)OC(C)OC(=O)c1c(CCCOc2cccc3cc(F)ccc23)c2ccc(Cl)c(-c3c(C)nn(C)c3C)c2n1CCN1CCN(C(=O)COc2cccc3c2CN(C2CCC(=O)NC2=O)C3=O)CC1 (stereo not drawn) [Compound 75, 1-Acetoxyethyl 6-chloro-1-(2-(4-(2-((2-(2,6-dioxopiperidin-3-yl)-1-oxoisoindolin-4-yl)oxy)acetyl)piperazin-1-yl)ethyl)-3-(3-((6-fluoronaphthalen-1-yl)oxy)propyl)-7-(1,3,5-trimethyl-1H-pyrazol-4-yl)-1H-indole-2-carboxylate] | < 10 | > 31600 |  |  |
| Cc1nn(C)c(C)c1-c1c(Cl)ccc2c(CCCOc3cccc4cc(F)ccc34)c(C(=O)OC(C)OC(=O)OC(C)C)n(CCN3CCN(C(=O)COc4cccc5c4CN(C4CCC(=O)NC4=O)C5=O)CC3)c12 (stereo not drawn) [Compound 99, 1-{[(Propan-2-yloxy)carbonyl]oxy}ethyl 6-chloro-1-{2-[4-(2-{[2-(2,6-dioxopiperidin-3-yl)-1-oxo-2,3-dihydro-1H-isoindol-4-yl]oxy}acetyl)piperazin-1-yl]ethyl}-3-{3-[(6-fluoronaphthalen-1-yl)oxy]propyl}-7-(1,3,5-trimethyl-1H-pyrazol-4-yl)-1H-indole-2-carboxylate] | < 31.6 | > 31600 |  |  |
| Cc1nn(C)c(C)c1-c1c(Cl)ccc2c(CCCOc3cccc4cc(F)ccc34)c(C(=O)OC(C)OC(=O)OC3CCCCC3)n(CCN3CCN(C(=O)COc4cccc5c4CN(C4CCC(=O)NC4=O)C5=O)CC3)c12 (stereo not drawn) [Compound 100, 1-(((Cyclohexyloxy)carbonyl)oxy)ethyl 6-chloro-1-(2-(4-(2-((2-(2,6-dioxopiperidin-3-yl)-1-oxoisoindolin-4-yl)oxy)acetyl)piperazin-1-yl)ethyl)-3-(3-((6-fluoronaphthalen-1-yl)oxy)propyl)-7-(1,3,5-trimethyl-1H-pyrazol-4-yl)-1H-indole-2-carboxylate] | < 31.6 | > 31600 |  |  |
| Cc1nn(C)c(C)c1-c1c(Cl)ccc2c(CCCOc3cccc4cc(F)ccc34)c(C(=O)OCCS(C)(=O)=O)n(CCN3CCN(C(=O)COc4cccc5c4CN(C4CCC(=O)NC4=O)C5=O)CC3)c12 (stereo not drawn) [Compound 124, 2-(Methylsulfonyl)ethyl 6-chloro-1-(2-(4-(2-((2-(2,6-dioxopiperidin-3-yl)-1-oxoisoindolin-4-yl)oxy)acetyl)piperazin-1-yl)ethyl)-3-(3-((6-fluoronaphthalen-1-yl)oxy)propyl)-7-(1,3,5-trimethyl-1H-pyrazol-4-yl)-1H-indole-2-carboxylate] | < 1000 | > 31600 |  |  |
| Cc1nn(C)c(C)c1-c1c(Cl)ccc2c(CCCOc3cccc4cc(F)ccc34)c(C(=O)OCCN3CCOCC3)n(CCN3CCN(C(=O)COc4cccc5c4CN(C4CCC(=O)NC4=O)C5=O)CC3)c12 (stereo not drawn) [Compound 129, 2-Morpholinoethyl 6-chloro-1-(2-(4-(2-((2-(2,6-dioxopiperidin-3-yl)-1-oxoisoindolin-4-yl)oxy)acetyl)piperazin-1-yl)ethyl)-3-(3-((6-fluoronaphthalen-1-yl)oxy)propyl)-7-(1,3,5-trimethyl-1H-pyrazol-4-yl)-1H-indole-2-carboxylate] |  |  | 316 | 355 |
| Cc1nn(C)c(C)c1-c1c(Cl)ccc2c(CCCOc3cccc4cc(F)ccc34)c(C(=O)OCCN3CCN(C)CC3)n(CCN3CCN(C(=O)COc4cccc5c4CN(C4CCC(=O)NC4=O)C5=O)CC3)c12 (stereo not drawn) [Compound 133, 2-(4-Methylpiperazin-1-yl)ethyl 6-chloro-1-(2-(4-(2-((2-(2,6-dioxopiperidin-3-yl)-1-oxoisoindolin-4-yl)oxy)acetyl)piperazin-1-yl)ethyl)-3-(3-((6-fluoronaphthalen-1-yl)oxy)propyl)-7-(1,3,5-trimethyl-1H-pyrazol-4-yl)-1H-indole-2-carboxylate] |  |  | 398 | 251 |
